Measurements: patent US20100215579A1, “PHEN-NAPHTHALENE AND PHEN-QUINOLINE DERIVATIVES AND THEIR USE FOR BINDING AND IMAGING AMYLOID PLAQUES” (The Trustees of the University of Pennsylvania, priority 2007, published 2010)

Assay: Biodistribution in ICR mice after an iv injection
Assay type: in vivo
Text: Biodistribution in ICR Mice After an iv Injection of [^18F][4-(6-{2-[2-(2-Fluoro-ethoxy)-ethoxy]-ethoxy}-naphthalen-2-yl)-phenyl]-methyl-amine in 1% EtOH/0.1% BSA in Water
(% dose/organ, avg of 3 mice±SD)
(% dose/g, avg of 3 mice±SD)
Biodistribution in ICR Mice After an iv Injection of [^18F]19a in 3% EtOH/0.1% BSA in Water
Biodistribution in ICR Mice After an iv Injection of [^18F]34a in 5% EtOH/0.1% BSA in Water
Biodistribution in ICR Mice After an iv Injection of [^18F]32a in 1% EtOH/0.1% BSA in Water

[1] = Blood, 2 min after iv injection
[2] = Blood, 30 min after iv injection
[3] = Bone, 30 min after iv injection
[4] = Brain, 2 min after iv injection
[5] = Brain, 30 min after iv injection
[6] = Heart, 2 min after iv injection
[7] = Heart, 30 min after iv injection
[8] = Kidney, 2 min after iv injection
[9] = Kidney, 30 min after iv injection
[10] = Kidney, 1 hr after iv injection
[11] = Kidney, 2 hr after iv injection
[12] = Liver, 2 min after iv injection
[13] = Liver, 30 min after iv injection
[14] = Lung, 30 min after iv injection
[15] = Muscle, 2 min after iv injection
[16] = Muscle, 30 min after iv injection
[17] = Muscle, 1 hr after iv injection
[18] = Muscle, 2 hr after iv injection
[19] = Skin, 30 min after iv injection
[20] = Spleen, 2 min after iv injection
[21] = Spleen, 30 min after iv injection
[22] = Spleen, 1 hr after iv injection
[23] = Spleen, 2 hr after iv injection

## CNc1ccc(-c2ccc3cc(OCCOCCOCCF)ccc3c2)cc1 [[^18F][4-(6-{2-[2-(2-Fluoro-ethoxy)-ethoxy]-ethoxy}-naphthalen-2-yl)-phenyl]-methyl-amine]
[1]
  % dose/g: 2.08 ± 0.20 % dose/g
  % dose/organ: 3.50 ± 0.18 % dose/organ
[2]
  % dose/g: 1.72 ± 0.29 % dose/g
  % dose/organ: 2.99 ± 0.48 % dose/organ
Blood, 1 hr after iv injection
  % dose/g: 1.41 ± 0.33 % dose/g
  % dose/organ: 2.73 ± 0.41 % dose/organ
Blood, 2 hr after iv injection
  % dose/g: 2.22 ± 0.37 % dose/g
  % dose/organ: 3.59 ± 0.53 % dose/organ
Bone, 2 min after iv injection
  % dose/g: 2.14 ± 0.82 % dose/g
  % dose/organ: 7.38 ± 3.40 % dose/organ
[3]
  % dose/g: 0.97 ± 0.03 % dose/g
  % dose/organ: 3.36 ± 0.09 % dose/organ
Bone, 1 hr after iv injection
  % dose/g: 1.19 ± 0.21 % dose/g
  % dose/organ: 4.61 ± 0.36 % dose/organ
Bone, 2 hr after iv injection
  % dose/g: 2.18 ± 0.19 % dose/g
  % dose/organ: 7.07 ± 0.57 % dose/organ
[4]
  % dose/g: 7.26 ± 1.28 % dose/g
  % dose/organ: 3.43 ± 0.51 % dose/organ
[5]
  % dose/g: 2.15 ± 0.25 % dose/g
  % dose/organ: 0.95 ± 0.08 % dose/organ
Brain, 1 hr after iv injection
  % dose/g: 1.58 ± 0.18 % dose/g
  % dose/organ: 0.75 ± 0.06 % dose/organ
Brain, 2 hr after iv injection
  % dose/g: 1.91 ± 0.12 % dose/g
  % dose/organ: 0.88 ± 0.06 % dose/organ
[6]
  % dose/g: 5.44 ± 0.25 % dose/g
  % dose/organ: 0.63 ± 0.08 % dose/organ
[7]
  % dose/g: 2.04 ± 0.30 % dose/g
  % dose/organ: 0.23 ± 0.02 % dose/organ
Heart, 1 hr after iv injection
  % dose/g: 1.46 ± 0.24 % dose/g
  % dose/organ: 0.18 ± 0.01 % dose/organ
Heart, 2 hr after iv injection
  % dose/g: 1.79 ± 0.19 % dose/g
  % dose/organ: 0.19 ± 0.03 % dose/organ
[8]
  % dose/g: 8.88 ± 1.80 % dose/g
  % dose/organ: 3.27 ± 0.60 % dose/organ
[9]
  % dose/g: 3.98 ± 0.64 % dose/g
  % dose/organ: 1.45 ± 0.12 % dose/organ
[10]
  % dose/g: 2.75 ± 0.35 % dose/g
  % dose/organ: 1.05 ± 0.25 % dose/organ
[11]
  % dose/g: 2.52 ± 0.18 % dose/g
  % dose/organ: 0.88 ± 0.10 % dose/organ
[12]
  % dose/g: 19.7 ± 3.24 % dose/g
  % dose/organ: 26.5 ± 2.18 % dose/organ
[13]
  % dose/g: 13.4 ± 1.30 % dose/g
  % dose/organ: 17.1 ± 1.54 % dose/organ
Liver, 1 hr after iv injection
  % dose/g: 9.46 ± 1.50 % dose/g
  % dose/organ: 16.3 ± 1.39 % dose/organ
Liver, 2 hr after iv injection
  % dose/g: 11.9 ± 1.87 % dose/g
  % dose/organ: 13.5 ± 1.77 % dose/organ
Lung, 2 min after iv injection
  % dose/g: 5.73 ± 0.19 % dose/g
  % dose/organ: 1.08 ± 0.05 % dose/organ
[14]
  % dose/g: 2.78 ± 0.30 % dose/g
  % dose/organ: 0.53 ± 0.10 % dose/organ
Lung, 1 hr after iv injection
  % dose/g: 1.99 ± 0.26 % dose/g
  % dose/organ: 0.41 ± 0.05 % dose/organ
Lung, 2 hr after iv injection
  % dose/g: 2.44 ± 0.37 % dose/g
  % dose/organ: 0.48 ± 0.16 % dose/organ
[15]
  % dose/g: 1.21 ± 0.98 % dose/g
  % dose/organ: 11.8 ± 9.69 % dose/organ
[16]
  % dose/g: 1.27 ± 0.06 % dose/g
  % dose/organ: 12.7 ± 0.64 % dose/organ
[17]
  % dose/g: 0.92 ± 0.09 % dose/g
  % dose/organ: 10.3 ± 0.54 % dose/organ
[18]
  % dose/g: 0.97 ± 0.06 % dose/g
  % dose/organ: 9.00 ± 0.56 % dose/organ
Skin, 2 min after iv injection
  % dose/g: 1.01 ± 0.16 % dose/g
  % dose/organ: 3.66 ± 0.74 % dose/organ
[19]
  % dose/g: 1.90 ± 0.08 % dose/g
  % dose/organ: 7.08 ± 0.26 % dose/organ
Skin, 1 hr after iv injection
  % dose/g: 1.56 ± 0.18 % dose/g
  % dose/organ: 6.53 ± 0.12 % dose/organ
Skin, 2 hr after iv injection
  % dose/g: 1.32 ± 0.09 % dose/g
  % dose/organ: 4.60 ± 0.29 % dose/organ
[20]
  % dose/g: 5.11 ± 0.49 % dose/g
  % dose/organ: 0.47 ± 0.03 % dose/organ
[21]
  % dose/g: 2.12 ± 0.33 % dose/g
  % dose/organ: 0.23 ± 0.01 % dose/organ
[22]
  % dose/g: 1.81 ± 0.17 % dose/g
  % dose/organ: 0.23 ± 0.02 % dose/organ
[23]
  % dose/g: 2.08 ± 0.44 % dose/g
  % dose/organ: 0.19 ± 0.03 % dose/organ
